PubChem BioAssay AID1963986 (Molecular Pharmacology Branch, DTP, NCI, 2024)

Test system: 171881-019-R-J1-PDC tumor spheroid viability
Test: Anticancer human tumor 171881-019-R-J1-PDC patient-derived invasive breast carcinoma cell line growth inhibition [PI3K]
Settings: spheroids with HUVEC and MSC; for IC50: curve of first compound; for viability, T/C: stronger effect = lower value
Outline: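 Targeted small molecules plus PI3K inhibitors, half-log dose series from Cmax (default top 10 microM), were applied to heterotypic spheroids of cancer cells with HUVEC and MSCs. Viability indicated growth inhibition.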

[1] = second compound 0.00316 µM, first compound 0.000316 µM
[2] = second compound 0.00316 µM, first compound 0.001 µM
[3] = second compound 0.00316 µM, first compound 0.00316 µM
[4] = second compound 0.00316 µM, first compound 0.01 µM
[5] = second compound 0.00316 µM, first compound 0.0316 µM
[6] = second compound 0.00316 µM, first compound 0.1 µM
[7] = second compound 0.01 µM, first compound 0.000316 µM
[8] = second compound 0.01 µM, first compound 0.001 µM
[9] = second compound 0.01 µM, first compound 0.00316 µM
[10] = second compound 0.01 µM, first compound 0.01 µM
[11] = second compound 0.01 µM, first compound 0.0316 µM
[12] = second compound 0.01 µM, first compound 0.1 µM
[13] = second compound 0.0316 µM, first compound 0.000316 µM
[14] = second compound 0.0316 µM, first compound 0.001 µM
[15] = second compound 0.0316 µM, first compound 0.00316 µM
[16] = second compound 0.0316 µM, first compound 0.01 µM
[17] = second compound 0.0316 µM, first compound 0.0316 µM
[18] = second compound 0.0316 µM, first compound 0.1 µM
[19] = second compound 0.1 µM, first compound 0.000316 µM
[20] = second compound 0.1 µM, first compound 0.001 µM
[21] = second compound 0.1 µM, first compound 0.00316 µM
[22] = second compound 0.1 µM, first compound 0.01 µM
[23] = second compound 0.1 µM, first compound 0.0316 µM
[24] = second compound 0.1 µM, first compound 0.1 µM
[25] = second compound 0.316 µM, first compound 0.000316 µM
[26] = second compound 0.316 µM, first compound 0.001 µM
[27] = second compound 0.316 µM, first compound 0.00316 µM
[28] = second compound 0.316 µM, first compound 0.01 µM
[29] = second compound 0.316 µM, first compound 0.0316 µM
[30] = second compound 0.316 µM, first compound 0.1 µM
[31] = second compound 1 µM, first compound 0.000316 µM
[32] = second compound 1 µM, first compound 0.001 µM
[33] = second compound 1 µM, first compound 0.00316 µM
[34] = second compound 1 µM, first compound 0.01 µM
[35] = second compound 1 µM, first compound 0.0316 µM
[36] = second compound 1 µM, first compound 0.1 µM
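Also: spheroids exposed to compound for 7 days before viability read.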
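For viability, T/C in this document: 100% = DMSO vehicle-treated spheroids.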

In the case of CC(=O)c1c(C)c2cnc(Nc3ccc(N4CCNCC4)cn3)nc2n(C2CCCC2)c1=O + COc1c(OCCCN2CCOCC2)ccc2c3n(c(=NC(=O)c4cnc(N)nc4)nc12)CCN3, the IC50 (second compound 0.00316 µM) is reported as over 100 nM, the IC50 (second compound 0.01 µM) is reported as under 0.316 nM and the IC50 (second compound 0.0316 µM) is reported as under 0.316 nM. It also gave an IC50 (second compound 0.1 µM) of under 0.316 nM, an IC50 (second compound 0.316 µM) of under 0.316 nM and an IC50 (second compound 1 µM) of under 0.316 nM. The viability, T/C [1] was 64.3%, the viability, T/C [2] was 63.9% and the viability, T/C [3] was 65.5%. For the same compound, the viability, T/C [4] was 73%, the viability, T/C [5] was 65% and the viability, T/C [6] was 70.4%. The viability, T/C [7] was 48.1%, the viability, T/C [8] was 53.9% and the viability, T/C [9] was 52.2%. The viability, T/C [10] was 55.1%, the viability, T/C [11] was 57.9% and the viability, T/C [12] was 58.5%. For the same compound, the viability, T/C [13] was 20.7%, the viability, T/C [14] was 25% and the viability, T/C [15] was 26.8%. The viability, T/C [16] was 27%, the viability, T/C [17] was 28.5% and the viability, T/C [18] was 27.9%. It also gave a viability, T/C [19] of 6.71%, a viability, T/C [20] of 6.39% and a viability, T/C [21] of 8.12%. For the same compound, the viability, T/C [22] was 7.28%, the viability, T/C [23] was 8.51% and the viability, T/C [24] was 7.44%. It also gave a viability, T/C [25] of 1.58%, a viability, T/C [26] of 2.19% and a viability, T/C [27] of 1.53%. For the same compound, the viability, T/C [28] was 1.61%, the viability, T/C [29] was 1.59% and the viability, T/C [30] was 1.7%. It also gave a viability, T/C [31] of 1.49%, a viability, T/C [32] of 1.21% and a viability, T/C [33] of 1.21%. The viability, T/C [34] was 1.26%, the viability, T/C [35] was 1.35% and the viability, T/C [36] was 1.32%.

With CC(C)n1nc(-c2ccc3oc(N)nc3c2)c2c(N)ncnc21 + COc1c(OCCCN2CCOCC2)ccc2c3n(c(=NC(=O)c4cnc(N)nc4)nc12)CCN3 the IC50 (second compound 0.00316 µM) was 3.55 nM, the IC50 (second compound 0.01 µM) was under 0.316 nM and the IC50 (second compound 0.0316 µM) was under 0.316 nM. The IC50 (second compound 0.1 µM) was under 0.316 nM, the IC50 (second compound 0.316 µM) was under 0.316 nM and the IC50 (second compound 1 µM) was under 0.316 nM. The viability, T/C [1] was 61.1%, the viability, T/C [2] was 66.3% and the viability, T/C [3] was 47.6%. For the same compound, the viability, T/C [4] was 36.1%, the viability, T/C [5] was 13.1% and the viability, T/C [6] was 3.55%. The viability, T/C [7] was 46%, the viability, T/C [8] was 45.8% and the viability, T/C [9] was 36.4%. For the same compound, the viability, T/C [10] was 19.3%, the viability, T/C [11] was 8.72% and the viability, T/C [12] was 2.78%. For the same compound, the viability, T/C [13] was 23.6%, the viability, T/C [14] was 22.3% and the viability, T/C [15] was 16%. It also gave a viability, T/C [16] of 8.85%, a viability, T/C [17] of 4.14% and a viability, T/C [18] of 2.34%. For the same compound, the viability, T/C [19] was 8.49%, the viability, T/C [20] was 7.85% and the viability, T/C [21] was 5.37%. It also gave a viability, T/C [22] of 3.59%, a viability, T/C [23] of 2.66% and a viability, T/C [24] of 1.6%. For the same compound, the viability, T/C [25] was 2.47%, the viability, T/C [26] was 2.41% and the viability, T/C [27] was 2.58%. For the same compound, the viability, T/C [28] was 1.51%, the viability, T/C [29] was 1.36% and the viability, T/C [30] was 1.1%. For the same compound, the viability, T/C [31] was 1.08%, the viability, T/C [32] was 0.86% and the viability, T/C [33] was 1.3%. For the same compound, the viability, T/C [34] was 1.16%, the viability, T/C [35] was 1.03% and the viability, T/C [36] was 1.05%.

CCCS(=O)(=O)Nc1ccc(F)c(C(=O)c2c[nH]c3ncc(-c4ccc(Cl)cc4)cc23)c1F + COc1c(OCCCN2CCOCC2)ccc2c3n(c(=NC(=O)c4cnc(N)nc4)nc12)CCN3 gave an IC50 (second compound 0.00316 µM) of 5730 nM, an IC50 (second compound 0.01 µM) of 4520 nM and an IC50 (second compound 0.0316 µM) of under 31.6 nM. For the same compound, the IC50 (second compound 0.1 µM) was under 31.6 nM, the IC50 (second compound 0.316 µM) was under 31.6 nM and the IC50 (second compound 1 µM) was under 31.6 nM. The viability, T/C [5] was 70.6%, the viability, T/C [6] was 81.9% and the viability, T/C (second compound 0.00316 µM, first compound 0.316 µM) was 94.3%. The viability, T/C (second compound 0.00316 µM, first compound 1 µM) was 108%, the viability, T/C (second compound 0.00316 µM, first compound 3.16 µM) was 93.7% and the viability, T/C (second compound 0.00316 µM, first compound 10 µM) was 12.9%. It also gave a viability, T/C [11] of 53.8%, a viability, T/C [12] of 60% and a viability, T/C (second compound 0.01 µM, first compound 0.316 µM) of 67.2%. The viability, T/C (second compound 0.01 µM, first compound 1 µM) was 83.6%, the viability, T/C (second compound 0.01 µM, first compound 3.16 µM) was 76.5% and the viability, T/C (second compound 0.01 µM, first compound 10 µM) was 9.83%. The viability, T/C [17] was 29%, the viability, T/C [18] was 29.3% and the viability, T/C (second compound 0.0316 µM, first compound 0.316 µM) was 32%. The viability, T/C (second compound 0.0316 µM, first compound 1 µM) was 40.5%, the viability, T/C (second compound 0.0316 µM, first compound 3.16 µM) was 45.8% and the viability, T/C (second compound 0.0316 µM, first compound 10 µM) was 5.59%. The viability, T/C [23] was 9.3%, the viability, T/C [24] was 10.5% and the viability, T/C (second compound 0.1 µM, first compound 0.316 µM) was 10.9%. The viability, T/C (second compound 0.1 µM, first compound 1 µM) was 13.9%, the viability, T/C (second compound 0.1 µM, first compound 3.16 µM) was 17.3% and the viability, T/C (second compound 0.1 µM, first compound 10 µM) was 2.6%. It also gave a viability, T/C [29] of 2.18%, a viability, T/C [30] of 2.42% and a viability, T/C (second compound 0.316 µM, first compound 0.316 µM) of 3.05%. For the same compound, the viability, T/C (second compound 0.316 µM, first compound 1 µM) was 2.63%, the viability, T/C (second compound 0.316 µM, first compound 3.16 µM) was 3.95% and the viability, T/C (second compound 0.316 µM, first compound 10 µM) was 2.09%. It also gave a viability, T/C [35] of 1.32%, a viability, T/C [36] of 1.32% and a viability, T/C (second compound 1 µM, first compound 0.316 µM) of 1.47%. The viability, T/C (second compound 1 µM, first compound 1 µM) was 1.16%, the viability, T/C (second compound 1 µM, first compound 3.16 µM) was 1.64% and the viability, T/C (second compound 1 µM, first compound 10 µM) was 3.34%.
